Measurements taken from ChEMBL document CHEMBL1201862, “PubChem BioAssay data set” (2004).
Active and inactive are the calls of the source.

Columns and labels:
Mucolipin-3 = Mucolipin-3 (Homo sapiens, UniProt Q8TDD5); assay: Fluorescence counterscreen assay for […] agonists: dose response cell-based high-throughput screening assay to identify agonists of the transient receptor potential channel ML3 (TRPML3). [Related pubchem assays: 1424, 1448 ]; format: functional
Ion channel NompC = Ion channel NompC (Danio rerio, UniProt Q7T1G6); assay: Dose response cell-based high-throughput screening assay for agonists of the transient receptor potential channel N1 (TRPN1). [Related pubchem assays (depositor defined):AID1424, AID1448]; format: functional
Sequence of Ion channel NompC (Q7T1G6 whole entry): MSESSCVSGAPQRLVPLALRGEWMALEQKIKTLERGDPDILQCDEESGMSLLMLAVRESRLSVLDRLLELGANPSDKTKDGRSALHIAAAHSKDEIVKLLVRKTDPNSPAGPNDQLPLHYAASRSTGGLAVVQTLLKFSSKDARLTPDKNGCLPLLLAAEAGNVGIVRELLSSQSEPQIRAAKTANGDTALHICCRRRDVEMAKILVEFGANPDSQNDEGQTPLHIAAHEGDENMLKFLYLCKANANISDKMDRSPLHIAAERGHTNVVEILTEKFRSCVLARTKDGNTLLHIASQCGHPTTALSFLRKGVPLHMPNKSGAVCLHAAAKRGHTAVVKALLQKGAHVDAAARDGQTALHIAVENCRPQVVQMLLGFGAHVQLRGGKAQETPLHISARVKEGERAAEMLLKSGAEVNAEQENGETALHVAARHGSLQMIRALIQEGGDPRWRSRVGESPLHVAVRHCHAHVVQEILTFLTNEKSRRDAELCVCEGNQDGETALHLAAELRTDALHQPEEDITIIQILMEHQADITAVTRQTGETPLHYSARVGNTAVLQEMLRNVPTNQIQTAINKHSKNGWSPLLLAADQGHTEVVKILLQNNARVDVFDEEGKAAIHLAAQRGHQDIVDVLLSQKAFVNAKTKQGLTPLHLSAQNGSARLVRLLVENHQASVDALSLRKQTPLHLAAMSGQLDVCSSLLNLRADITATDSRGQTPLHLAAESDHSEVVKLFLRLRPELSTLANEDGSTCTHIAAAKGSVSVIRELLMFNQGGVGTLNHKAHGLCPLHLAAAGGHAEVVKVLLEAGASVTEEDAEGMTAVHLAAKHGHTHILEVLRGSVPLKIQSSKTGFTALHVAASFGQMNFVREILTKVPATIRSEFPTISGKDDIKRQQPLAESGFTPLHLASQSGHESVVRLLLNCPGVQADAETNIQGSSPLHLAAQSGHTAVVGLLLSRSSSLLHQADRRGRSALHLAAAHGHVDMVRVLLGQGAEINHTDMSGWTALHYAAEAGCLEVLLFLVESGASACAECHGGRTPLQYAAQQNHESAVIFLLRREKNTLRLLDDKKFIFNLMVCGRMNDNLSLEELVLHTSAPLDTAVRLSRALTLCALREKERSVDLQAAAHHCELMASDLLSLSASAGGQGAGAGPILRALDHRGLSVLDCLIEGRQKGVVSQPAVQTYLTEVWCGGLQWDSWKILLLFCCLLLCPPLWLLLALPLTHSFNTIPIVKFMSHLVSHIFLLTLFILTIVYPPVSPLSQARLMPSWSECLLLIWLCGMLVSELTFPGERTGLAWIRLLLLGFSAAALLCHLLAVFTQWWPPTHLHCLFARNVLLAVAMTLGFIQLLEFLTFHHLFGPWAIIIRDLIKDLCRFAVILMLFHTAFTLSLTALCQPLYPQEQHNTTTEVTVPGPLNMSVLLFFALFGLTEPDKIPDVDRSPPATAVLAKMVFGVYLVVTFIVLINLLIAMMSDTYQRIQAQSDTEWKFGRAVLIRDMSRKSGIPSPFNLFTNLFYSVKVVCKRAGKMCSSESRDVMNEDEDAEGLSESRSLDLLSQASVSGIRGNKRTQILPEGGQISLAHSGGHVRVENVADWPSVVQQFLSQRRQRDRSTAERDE

[1] = target: Likely tRNA 2'-phosphotransferase (Candida albicans (strain SC5314 / ATCC MYA-2876) (Yeast), UniProt Q5A7N4); assay: TPT1 tRNA phosphotransferase inhibitors, dose response, biochemical, fluorescence polarization (AID 2160)
Sequence of Likely tRNA 2'-phosphotransferase (Q5A7N4 whole entry): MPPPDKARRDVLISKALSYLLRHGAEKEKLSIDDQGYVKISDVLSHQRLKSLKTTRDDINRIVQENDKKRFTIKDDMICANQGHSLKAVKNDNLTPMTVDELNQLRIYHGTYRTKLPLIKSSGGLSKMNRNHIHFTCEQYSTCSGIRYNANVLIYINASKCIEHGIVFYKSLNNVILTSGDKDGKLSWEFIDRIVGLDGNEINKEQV

[2] = target: Guanyl-specific ribonuclease T1 (Aspergillus oryzae (strain ATCC 42149 / RIB 40), UniProt P00651); assay: RNase T1 inhibitors, dose response, counter-screen for TPT1 inhibitor project, biochemical, fluorescence polarization, 1536-well (AID 2167)
Sequence of Guanyl-specific ribonuclease T1 (P00651 whole entry): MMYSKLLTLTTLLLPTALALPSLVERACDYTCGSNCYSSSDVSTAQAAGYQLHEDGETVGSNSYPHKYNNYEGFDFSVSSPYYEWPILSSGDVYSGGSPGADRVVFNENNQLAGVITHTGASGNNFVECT

[3] = target: T1, Endoribonuclease toxin MazF (Escherichia coli K-12, UniProt P0AE70); assay: MazF toxin RNase activators, dose response, biochemical, fluorescence, single-stranded RNA substrate, uHTS hits (AID 588481); format: functional
T1 sequence (P0AE70 whole entry): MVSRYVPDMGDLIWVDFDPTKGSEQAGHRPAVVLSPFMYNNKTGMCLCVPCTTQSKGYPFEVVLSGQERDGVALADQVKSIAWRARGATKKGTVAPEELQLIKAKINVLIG

[4] = target: T1, Endoribonuclease toxin MazF; assay: fluorescent RNA oligo signal without MazF, dose response, counter-screen for MazEF activator project, biochemical, fluorescence, single-stranded RNase substrate (AID 588502); format: functional
Troponin, cardiac muscle = Troponin, cardiac muscle (Homo sapiens, UniProt P19429+P45379+P63316); assay: Fluorescence-based biochemical high throughput dose response assay for activators of the calcium sensitivity of cardiac Regulated Thin Filaments (RTF). [Related pubchem assays (depositor defined):AID493008, AID493018, AID504382, AID504383]; format: protein-complex assay
BJ [5] = assay: cytotoxicity toward BJ-TERT fibroblasts, dose response, cell-based, RAS-independent, luminescence (AID 1933); format: functional; conditions: Homo sapiens
[6] = Vero E6 cell cytotoxicity, dose response, cytotoxicity control for non-replicating M. tuberculosis project, secondary assay (AID 492998); format: functional, VeroE6; conditions: Vero C1008
BJ [7] = assay: cells; format: functional, cell-based; conditions: Homo sapiens
BJ [8] = assay: cytotoxicity toward BJ-TERT-LT-ST fibroblasts, dose response, cell-based, RAS-independent, luminescence (AID 1935); format: functional; conditions: Homo sapiens;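 note: BJ fibroblasts immortalized with TERT plus LT and ST oncogenes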
[9] = cytotoxicity toward DRD oncogenic fibroblasts, dose response, cell-based, non-viral oncogenic, luminescence (AID 1934); format: functional; conditions: Homo sapiens
cells = format: functional
[10] = THP-1 cell cytotoxicity, dose response, cytotoxicity control for non-replicating M. tuberculosis project (AID 489025); format: functional

Sequence of Mucolipin-3 (Q8TDD5 whole entry): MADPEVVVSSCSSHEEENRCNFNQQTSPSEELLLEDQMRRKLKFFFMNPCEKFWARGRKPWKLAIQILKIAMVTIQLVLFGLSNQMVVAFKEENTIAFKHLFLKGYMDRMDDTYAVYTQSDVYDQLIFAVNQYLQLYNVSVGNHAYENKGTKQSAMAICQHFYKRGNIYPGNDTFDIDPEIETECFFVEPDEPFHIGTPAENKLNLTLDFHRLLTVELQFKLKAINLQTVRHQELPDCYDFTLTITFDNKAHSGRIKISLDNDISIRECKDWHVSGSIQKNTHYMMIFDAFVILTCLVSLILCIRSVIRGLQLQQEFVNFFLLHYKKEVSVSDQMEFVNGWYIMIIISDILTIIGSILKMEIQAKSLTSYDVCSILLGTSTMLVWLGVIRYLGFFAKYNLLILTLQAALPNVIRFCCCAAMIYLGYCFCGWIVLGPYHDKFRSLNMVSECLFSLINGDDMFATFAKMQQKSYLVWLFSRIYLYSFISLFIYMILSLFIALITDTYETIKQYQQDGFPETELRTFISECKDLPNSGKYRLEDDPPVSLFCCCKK

In the case of `CC(=O)N1C(=O)C(=C2C=C(C)OC(C)=C2)c2ccccc21`, the EC50 (Mucolipin-3) is reported as > 29.9 µM (not active), the EC50 (Ion channel NompC) is reported as 22 µM (inactive) and the IC50 [1] is reported as > 2.06 µM (active). For the same compound, the IC50 [2] was 2.13 µM (active), the EC50 [3] was > 99 µM (inactive) and the EC50 [4] was > 99 µM (inactive).

With `Cc1ccc(-c2ccc(OC(=O)c3ccc(=O)[nH]c3)c(C)c2)cc1` the EC50 (Troponin, cardiac muscle) was > 71.5 µM (inactive).

For `COC(=O)c1ccc(C(=O)NC2CCCc3c2cnn3-c2cc(F)cc(F)c2)nc1` (centres undefined), the EC50 (BJ [5]) was 17.1 µM (active), the CC50 [6] was 10.8 µM (active) and the EC50 (BJ [7]) was 24.6 µM (active). For the same compound, the EC50 (BJ [8]) was 17.3 µM (active), the EC50 [9] was 40 µM (active) and the IC50 (cells) was 2.22 µM (active). For the same compound, the CC50 [10] was 10.7 µM (active).
